The text below walks through data of EPA's ToxValDB 9.5.

This data set concerns Rattus norvegicus. As to conditions: for LOEL / NOEL: oral, gavage.
Setting [1] is: reproduction developmental, duration: 28 days, inhalation, M, Wistar, generation: P0, P0: Whole Body: Body Weight Change.
Setting [2] is: short-term, duration: 28 days, inhalation, F, Wistar, Kidney: Creatinine (CREAT).
Where [3] appears, read: short-term, duration: 28 days, inhalation, F, Wistar, Kidney: Creatinine (CREAT) + Multi-Organ: Gamma-Glutamyl Transferase (GGT).
[4] abbreviates: short-term, duration: 28 days, inhalation, F, Wistar, Kidney: Fluoride, Total Urinary Excretion + Kidney: Fluoride, Urine + Kidney: Urinary Fluoride/Creatinine Ratio + Liver: Liver Weight, ….
The mark [5] stands for this setting: short-term, duration: 28 days, inhalation, F, Wistar, Liver: Liver Weight, Absolute + Liver: Liver Weight, Relative + Lung: Lung Histopathology + Lung: Lung Weight, Absolute + Lung: Lung Weight….
The mark [6] stands for this setting: short-term, duration: 28 days, inhalation, F, Wistar, Liver: Total Bilirubin (TBILI).
[7] abbreviates: short-term, duration: 28 days, inhalation, M, Wistar, Kidney: Creatinine (CREAT) + Whole Body: Body Weight Change + Whole Body: Food Conversion Efficiency + Whole Body: Food Intake.
The mark [8] stands for this setting: short-term, duration: 28 days, inhalation, M, Wistar, Kidney: Fluoride, Total Urinary Excretion + Kidney: Fluoride, Urine + Kidney: Urinary Fluoride/Creatinine Ratio + Lung: Lung Histopathology….
The mark [9] stands for this setting: short-term, duration: 28 days, inhalation, M, Wistar, Liver: Albumin (A) + Liver: Triglycerides (TRIG) + Multi-Organ: Cholesterol, Total + Multi-organ: Glucose (GLU).
Setting [10] is: short-term, duration: 28 days, inhalation, M, Wistar, Liver: Albumin (A) + Multi-Organ: Glucose (GLU) + Renal: Fluoride, Total Urinary Excretion + Renal: Fluoride, Urine + Renal: Fluoride/….
The mark [11] stands for this setting: short-term, duration: 28 days, inhalation, M, Wistar, Lung: Lung Histopathology + Lung: Lung Weight, Absolute + Lung: Lung Weight, Relative + Spleen: Spleen Weight, Absolute + Spleen: Spleen ….
Setting [12] is: short-term, duration: 28 days, inhalation, M, Wistar, Whole Body: Body Weight Change.
The mark [13] stands for this setting: subchronic, duration: 91 days, inhalation, F, Wistar, Blood: Albumin/Globulin (A/G) Ratio + Liver: Liver Weight, Relative + Multi-Organ: Acyl-CoA Oxidase Activity.
Setting [14] is: subchronic, duration: 91 days, inhalation, F, Wistar, Kidney: Kidney Weight, Relative + Liver: Albumin (A).
Where [15] appears, read: subchronic, duration: 91 days, inhalation, M, Wistar, Blood: Mean Corpuscular Hemoglobin (MCH) + Liver: Albumin (A) + Liver: Alkaline Phosphatase (ALP) + Liver: Cholesterol (CHOL), Total + Liver….
The mark [16] stands for this setting: subchronic, duration: 91 days, inhalation, M, Wistar, Blood: Mean Corpuscular Hemoglobin (MCH), Recovery + Blood: Mean Corpuscular Volume (MCV) + Blood: Platelet Count (PLT), Recovery + Blood: ….
[17] abbreviates: reproduction developmental, duration: 28 days, inhalation, M, Sprague-Dawley, generation: P0, P0: Other Systems: Bone: Bone Histopathology + P0: Other Systems: Esophagus: Esophagus Histopathology + P0: Other Systems: Eye: Eye ….
[18] abbreviates: reproduction developmental, duration: 50 days, inhalation, F, Sprague-Dawley, generation: P0, P0: Other Systems: Bone: Bone Histopathology + P0: Other Systems: Esophagus: Esophagus Histopathology + P0: Other Systems: Eye: Eye ….
The mark [19] stands for this setting: short-term, duration: 3 weeks, inhalation, M/F, Alpk:Albino, Whole Body: Body Weight Change + Whole Body: Clinical Observations.
[20] abbreviates: chronic, duration: 92 days, F, Wistar, kidney: relative kidney weight.
Setting [21] is: chronic, duration: 92 days, M, Wistar, liver: relative liver weight.
[22] abbreviates: short-term, duration: 28 days, F, Wistar, kidney: absolute kidney weight + kidney: relative kidney weight + liver: absolute liver weight + liver: relative liver weight.
The mark [23] stands for this setting: short-term, duration: 28 days, M, Wistar, adrenal gland: absolute adrenal gland weight + adrenal gland: relative adrenal gland weight + testis: relative testis weight + thymus: ….
Setting [24] is: short-term, duration: 28 days, M, Wistar, liver: relative liver weight + spleen: absolute spleen weight.

Each structure is given as a SMILES string.

`O=C(C(F)(F)C(F)(F)F)C(F)(C(F)(F)F)C(F)(F)F` [Perfluoro-2-methyl-3-pentanone]: the no observed adverse effect level (NOAEL) (developmental, duration: 13 days, inhalation, M/F, Sprague-Dawley, generation: F1, F1: Uterus: Resorptions, Early + F1: Uterus: Resorptions, Late + F1: Whole Body: Fetal Alterations, Total) was 38800 mg/m3; the NOAEL (reproduction developmental, duration: 4 days, inhalation, F, Wistar, generation: F1, F1: Whole Body: Body Weight Change + F1: Whole Body: Body Weight, Absolute + F1: Whole Body: Clinical Observations + F1: Whole Body: Live …) turned out to be 38800 mg/m3; the no observed adverse effect level (NOAEL) (reproduction developmental, duration: 4 days, inhalation, F, Wistar, generation: P0, P0: Uterus: Estrous Cycle + P0: Whole Body: Body Weight Change + P0: Whole Body: Body Weight, Absolute + P0: Whole Body: Clinical …) amounted to 38800 mg/m3; the NOAEL (reproduction developmental, duration: 13 days, inhalation, F, Sprague-Dawley, generation: P0, P0: Ovary: Corpora Lutea + P0: Ovary: Ovary, Necropsy + P0: Placenta: Normal Placenta + P0: Uterus: Implantation + P0: Uterus: Uterine …) turned out to be 38800 mg/m3; the NOAEL (reproduction developmental, duration: 28 days, inhalation, M, Wistar, generation: P0, P0: Epididymis: Epididymis Weight, Absolute + P0: Testis: Testis Weight, Absolute + P0: Whole Body: Body Weight, Absolute + P0: Whole Body: …) came out at 38800 mg/m3; the NOAEL under setting [1] worked out at 3880 mg/m3. In addition, the NOAEL (short-term, duration: 28 days, inhalation, F, Wistar, Adrenal: Adrenal Gland Histopathology + Bladder: Urinary Bladder Histopathology + Blood: Albumin/Globulin (A/G) Ratio + Blood: Hematocrit (…) stood at 259000 mg/m3; the NOAEL (short-term, duration: 28 days, inhalation, F, Wistar, Blood: Albumin/Globulin (A/G) Ratio + Blood: Hematology, Unspecified + Liver: Albumin (A) + Liver: Liver Histopathology + Multi-Organ: …) is 245000 mg/m3; the NOAEL under setting [2] is 129000 mg/m3; the no observed adverse effect level (NOAEL) under setting [3] was found to be 125000 mg/m3; the no observed adverse effect level (NOAEL) under setting [4] was determined as 49600 mg/m3; the NOAEL under setting [5] is 51700 mg/m3. In addition, the NOAEL is, setting by setting: under setting [6], 12900 mg/m3; (short-term, duration: 28 days, inhalation, M, Wistar, Adrenal: Adrenal Gland Histopathology + Bladder: Urinary Bladder Histopathology + Blood: Hematocrit (HCT) + Blood: Hemoglobin (HGB) + Blood…) 259000 mg/m3; (short-term, duration: 28 days, inhalation, M, Wistar, Blood: Albumin/Globulin (A/G) Ratio + Blood: Hematology, Unspecified + Kidney: Creatinine (CREAT) + Liver: Phospholipid + Multi-Organ: Gamma…) 245000 mg/m3; under setting [7], 129000 mg/m3; under setting [8], 49600 mg/m3; under setting [9], 12400 mg/m3. For the same molecule, the NOAEL is 12900 mg/m3 under setting [10]; 51700 mg/m3 under setting [11]; 125000 mg/m3 under setting [12]; 12900 mg/m3 under setting [13]; 38800 mg/m3 (subchronic, duration: 91 days, inhalation, F, Wistar, Blood: Albumin/Globulin (A/G) Ratio, Recovery + Blood: Mean Corpuscular Hemoglobin (MCH) + Blood: Mean Corpuscular Volume (MCV) + Blood: Red…); 3880 mg/m3 under setting [14]. The NOAEL by setting is: (subchronic, duration: 91 days, inhalation, M, Wistar, Blood: Albumin/Globulin (A/G) Ratio, Recovery + Brain: Brain Weight, Absolute + Brain: Brain Weight, Relative + Eye: Ophthalmology, …) 38800 mg/m3; under setting [15], 3880 mg/m3; under setting [16], 12900 mg/m3. In addition, the lowest observed adverse effect level (LOAEL) runs as follows: under setting [1], 12900 mg/m3; under setting [2], 259000 mg/m3; under setting [3], 245000 mg/m3; under setting [4], 125000 mg/m3; under setting [5], 129000 mg/m3; (short-term, duration: 28 days, inhalation, F, Wistar, Liver: Peroxisome Induction + Liver: Phospholipid + Liver: Triglycerides (TRIG) + Spleen: Spleen Weight, Absolute + Spleen: Spleen Weight, …) 12900 mg/m3. For the same molecule, the LOAEL is, setting by setting: (short-term, duration: 28 days, inhalation, F, Wistar, Liver: Peroxisome Induction + Liver: Phospholipid + Spleen: Spleen Weight, Absolute + Spleen: Spleen Weight, Relative) 12400 mg/m3; under setting [6], 51700 mg/m3; (short-term, duration: 28 days, inhalation, M, Wistar, Blood: Albumin/Globulin (A/G) Ratio + Liver: Liver Histopathology + Liver: Liver Weight, Absolute + Liver: Liver Weight, Relative + Liver: …) 12900 mg/m3; under setting [7], 259000 mg/m3; under setting [8], 125000 mg/m3; under setting [9], 49600 mg/m3. Also, the lowest observed adverse effect level (LOAEL) under setting [10] stood at 51700 mg/m3; the lowest observed adverse effect level (LOAEL) (short-term, duration: 28 days, inhalation, M, Wistar, Liver: Liver Histopathology + Liver: Liver Weight, Absolute + Liver: Liver Weight, Relative + Liver: Peroxisome Induction) was found to be 12400 mg/m3; the LOAEL under setting [11] amounted to 129000 mg/m3; the lowest observed adverse effect level (LOAEL) under setting [12] is 245000 mg/m3; the lowest observed adverse effect level (LOAEL) under setting [13] came to 38800 mg/m3; the LOAEL under setting [14] stood at 12900 mg/m3. Also, the LOAEL was 3880 mg/m3 (subchronic, duration: 91 days, inhalation, F, Wistar, Spleen: Spleen Weight, Absolute); 3880 mg/m3 (subchronic, duration: 91 days, inhalation, M, Wistar, Blood: Albumin/Globulin (A/G) Ratio + Kidney: Kidney Weight, Absolute + Kidney: Kidney Weight, Relative + Liver: Liver Weight, Absolute + …); 12900 mg/m3 under setting [15]; 38800 mg/m3 under setting [16].
For `FC(F)=C(F)OC(F)(F)C(F)(F)C(F)(F)F` [Perfluoropropyl trifluorovinyl ether], the LOAEL came out at 43900 mg/m3 (reproduction developmental, duration: 28 days, inhalation, M, Sprague-Dawley, generation: P0, P0: Cardiovascular: Aorta: Aorta Histopathology + P0: Cardiovascular: Heart: Heart Histopathology + P0: Cardiovascular: Heart: Heart Weight…); 43900 mg/m3 under setting [17]; 43900 mg/m3 (reproduction developmental, duration: 50 days, inhalation, F, Sprague-Dawley, generation: P0, P0: Cardiovascular: Aorta: Aorta Histopathology + P0: Cardiovascular: Heart: Heart Histopathology + P0: Cardiovascular: Heart: Heart Weight…); 43900 mg/m3 under setting [18]. Besides, the no observed adverse effect level (NOAEL) came out at 10900 mg/m3 under setting [17] and 10900 mg/m3 under setting [18]. For the same molecule, the NEL came to 54400 mg/m3 (short-term, duration: 3 weeks, inhalation, F, Alpk:Albino, Multi-organ: Uterus and Gonad (Unspecified) Histopathology); 54400 mg/m3 (short-term, duration: 3 weeks, inhalation, M/F, Alpk:Albino, Blood: Potassium (K), Blood + Blood: Sodium (Na), Blood + Heart: Heart Histopathology + Kidney: Glucose (GLU), Urine + Kidney: Protein, …); 27200 mg/m3 under setting [19]; 54400 mg/m3 (short-term, duration: 3 weeks, inhalation, M, Alpk:Albino, Multi-organ: Epididymis and Gonad (Unspecified) Histopathology). Moreover, the LEL under setting [19] was 54400 mg/m3.
Regarding `Cc1ccc(S(=O)(=O)NC(=O)Nc2cccc(OS(=O)(=O)c3ccc(C)cc3)c2)cc1` [Pergafast 201], the LOEL reads like this: under setting [20], 150 mg/kg-day; (chronic, duration: 92 days, F, Wistar, liver: absolute liver weight + liver: relative liver weight) 12.5 mg/kg-day; under setting [21], 150 mg/kg-day; under setting [22], 150 mg/kg-day; under setting [23], 750 mg/kg-day; (short-term, duration: 28 days, M, Wistar, brain: relative brain weight + liver: absolute liver weight) 30 mg/kg-day. Moreover, the LOEL under setting [24] was 150 mg/kg-day. Also, the NOEL was 50 mg/kg-day under setting [20]; 50 mg/kg-day under setting [21]; 30 mg/kg-day under setting [22]; 150 mg/kg-day under setting [23]; 30 mg/kg-day under setting [24].
